Source: the supplement of paper PMC3068080

Columns and labels:
[1] = system: TGFBR1 mRNA; test: remaining TGFBR1 mRNA relative to control siRNA (off-target knock-down) (fraction of control); quantification method: branched DNA; higher = less knock-down
Experimental: (§1)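 Screen-hit siRNA duplexes (19-mer plus 3' dTdT overhang) were transiently transfected into HaCaT cells in 12-well plates. After 48 h, TGFBR1 and TGFBR2 mRNA were quantified by branched DNA assay (QuantiGene, normalised to HPRT1) or by SYBR qPCR (normalised to HPRT1/SMAD4). Values are the remaining mRNA relative to control-siRNA-transfected cells; 1-2 biological replicates.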

[2] = system: TGFBR2 mRNA; test: remaining TGFBR2 mRNA relative to control siRNA (off-target knock-down) (fraction of control); quantification method: branched DNA; higher = less knock-down
Experimental: as §1

Row | Sequence | remaining TGFBR1 mRNA [1] | remaining TGFBR2 mRNA [2]
1 | UGGAGCUGCACAUAUUCCUTT | 1.2 | 0.27
2 | UUAUCCUGAUCACGUCUAGTT | 0.65 | 0.14
3 | AUAUCCCGGGAGUUGUCGUTT | 1.1 | 0.37
4 | AGGCAACAGGGAUGAGAUGTT | 0.93 | 0.2
5 | UGAUGUUGUCUUGUCUGGUTT | 0.44 | 0.42
6 | AGGUUGUGGGCAAAGAUGUTT | 0.92 | 0.83
7 | UCCUUGGUGUAUUCUAACATT | 0.93 | 0.42
8 | UUCCUUGGUACGGCCGCUCTT | 0.87 | 0.13
9 | AGGUCAUCACGUACUUUUUTT | 0.16 | 1.09
10 | GAGCAGCUCUCGUAGCCAUTT | 1.01 | 0.33
11 | AGAUCACCGCGUAGACAACTT | 1.01 | 0.65
12 | UCCACGAUGAAGGGAUGCUTT | 1.06 | 0.7
13 | AGAGAUUCCUUUUCUUCACTT | 0.24 | 0.79
14 | AUCUAAACUCCUCUGGAGCTT | 0.76 | 0.38
15 | AAAAACCCUUUCCUGGGGCTT | 0.36 | 0.21
16 | UUCAAGGUCAGUCUCUGGGTT | 1.07 | 0.51
17 | AUCCUUGUCUGGAACAGUGTT | 1.33 | 0.25
18 | AGCCAGAAACUCAGACACCTT | 0.99 | 0.67
19 | UGCUUGAGUAGUGCUAGUUTT | 0.71 | 0.58
20 | UCUUGGCUUUGACACCGAGTT | 0.48 | 0.39
21 | CACUUCCCGGAUACUCAGATT | 0.96 | 0.33
22 | GAUGAAGAAGAGCGCAGCATT | 1.27 | 1.08
23 | AGACUACUGUGGCCAGUAATT | 1.22 | 1.1
24 | UGAUGUUGAUCUGGGGCACTT | 0.55 | 0.54
25 | CUGACCAUGCAGAGGAUGATT | 0.83 | 0.82
26 | UUCCCUGCUACUGUUGCUUTT | 0.84 | 0.72

Row | Sequence | remaining TGFBR1 mRNA [1] | remaining TGFBR2 mRNA [2]
27 | GAGUGACCUGCUCCUCUAATT | 1.01 | 0.61
28 | UUAUCCCAUAUGAGCUCAGTT | 1.33 | 0.5
29 | UAUGCUCCUCUUCCUGUUCTT | 1.43 | 0.57
30 | UCUCAUUUACCCUUUGGGGTT | 0.67 | 0.33
31 | AUGGCUAUUCCUGACCACGTT | 0.93 | 0.26
32 | AGUUCUCUCAAUUGCUUACTT | 0.92 | 0.54
33 | UCAAGGUGGACAAAGCUCUTT | 0.74 | 0.29
34 | GAGGUUGUUGUUGAGCUCGTT | 0.96 | 0.73
35 | ACUUUGGACAUGACCGGCUTT | 1.2 | 0.51
36 | AGCUUAUCCAACAGACGUCTT | 1.07 | 0.29
37 | GCUGAAUGAGGGUAGUCUUTT | 0.28 | 0.64
38 | UUUCCUGGCCUCCUGGAACTT | 0.94 | 0.29
39 | AUGCACCGAACAGCUCCAUTT | 1.56 | 0.31
40 | AGCCUCUGGAGAAUCUCCUTT | 1.04 | 0.6
41 | UCUACCCAGAACUCCACGATT | 0.14 | 1.01
42 | GAUGGACUGCAUACAUUGGTT | 0.29 | 0.87
43 | GUUCAGCAGCAGCAGACCATT | 1.16 | 0.79
44 | AUGGAGUAGCAUCACUCUCTT | 1.1 | 0.33
45 | UCAAGCCCAGAGGUGUCAUTT | 1.24 | 1
46 | UUCUUUGGAGAGUCCGGUCTT | 0.88 | 0.3
47 | AUAAGACAAGUGGUCGGGGTT | 0.52 | 0.94
48 | AUUUCGCACACGUCCGUGUTT | 0.86 | 0.61
49 | UCCUUGGUCCAUUAGGAGATT | 0.61 | 0.22
50 | UCAUAGCUCUGGCAUCGUCTT | 1.11 | 0.41
51 | AAUUGGCUCCACAGUCUUUTT | 1.23 | 0.44
52 | UGCAGUGAUAAAGGCUACATT | 0.34 | 0.67

Row | Sequence | remaining TGFBR1 mRNA [1] | remaining TGFBR2 mRNA [2]
53 | UGCUUAUCUCAUCUGAAGCTT | 0.93 | 0.28
54 | AUGCACUGAAGAAUUUCUUTT | 0.43 | 0.75
55 | AAAUGCUCCACCUCUCGGGTT | 0.37 | 0.28
56 | AUGACACCUCAGUCCUUCCTT | 0.38 | 0.88
57 | AAGUGCAUUCCGUGCAAUCTT | 0.92 | 0.59
58 | AGCGUCCUGAAGACUGGAUTT | 0.27 | 1.03
59 | AUGUCUCAAAGUCAAAAAATT | 0.92 | 0.58
60 | UGAAGACAGUCCUAUGGACTT | 0.42 | 0.97
61 | UUGAGCGAUUCCAGCUGCATT | 1.77 | 0.85
62 | UUUCAGCAAUACAAGCCCGTT | 0.39 | 0.68
63 | AACAUAGCCUCAUACAAGGTT | 0.7 | 0.25
64 | AUUGUUCCGGAAAUAGGUCTT | 1.15 | 0.72
65 | GGGUUUUCCCAGUCACGACTT | 0.91 | 0.54
66 | CAGUCUCAUCGUCCUCAUCTT | 1.07 | 0.69
67 | AUGGUGUUUGCAAGCUCCUTT | 1 | 0.36
68 | UUUGGAGCUCCCCAAACGCTT | 0.39 | 0.26
69 | UUUGGACUGGUUGGCACAGTT | 1.11 | 0.69
70 | UCCAGCUGUUUCGUUCCUCTT | 0.85 | 0.36
71 | AGAUCCAGGAUUACGCCAGTT | 0.88 | 0.72
72 | GGAAGUGUCAUGGAAGGUGTT | 0.7 | 0.29
73 | UGAUAGCACCAACACAAAGTT | 0.44 | 0.74
74 | UGGAAGACGCUUUAAAGGCTT | 0.85 | 0.48
75 | GAUGUUCCACAAAUUCCACTT | 0.85 | 0.47
76 | CCACUGGUGUGGGCCAUAATT | 1.38 | 0.51
77 | AGACUGCAAAUAUUCCUGATT | 1.31 | 0.49
78 | UCUCGGAGGCAGUUCCAGCTT | 0.86 | 0.82
